One data set concerns colon tumors. The experiment in a line: microPET/microCT imaging of I-124-NM404 in colon tumor model in rats (PIRC rat). The format is in vivo. From the text: FIG. 1 provides a 2D microCT projection of an excised PIRC rat colon filled with 2% barium (A) and ^124I-NM404 microPET image in a PIRC Rat (B) and the fused microPET/microCT image (C). Fiducial marker (M), Tumor (arrow).
Multiple tumors have been detected protruding into the colon lumen.

The next data set has as its system malignant tumors. The following applies: radiolabeled versions (such as I-124), known from earlier studies; cited from earlier work.

Take `C[N+](C)(C)CCOP(=O)([O-])OCCCCCCCCCCCCCCCCCCc1ccc(I)cc1` [NM404, 18-(p-Iodophenyl)octadecyl phosphocholine]: the “accumulation in excised colon on microPET image” value in the data set on colon tumors (PIRC rat colon with multiple tumors, microPET) is “one area of accumulation only”. Moreover, the “accumulation in colon tumors, fused microCT/microPET image” value in the data set with colon tumors (adenocarcinoma versus other colon tumors) is “seen only in a tumor that later proved to be an adenocarcinoma”. For the same compound, the “accumulation in benign polyps” value in the data set with colon tumors (all other colon tumors, which turned out to be benign polyps) was “did not show accumulation”. The “accumulation in malignant versus benign tumors” value with malignant tumors is “accumulate in malignant tumors, but not in benign tumors such as polyps”.

Values taken from patent publication US20080075660A1, “Near infrared-fluorescence using phospholipid ether analog dyes in endoscopic applications” (Cellectar, LLC, priority 2006, published 2008).
